Test results reported in patent US20050197364A1, “Amide compounds as ion channel ligands and uses thereof” (priority 2003, published 2005).

Molecular target: T1, VR1 receptor (Rattus norvegicus, UniProt O35433)
T1 construct: Dorsal root ganglion (DRG) neurons were recovered from either neonatal or adult rats; endogenous in cells; host or cells: primary rat dorsal root ganglion neurons
Test: Whole-cell patch clamp electrophysiology, capsaicin induced current in DRG neurons
Format: cell-based
Details: 20 nM, 40 nM, 100 nM and 200 nM
Description: Dorsal root ganglion (DRG) neurons were recovered from either neonatal or adult rats and plated onto poly-D-lysine coated glass coverslips. The plated neurons were transferred into a chamber to allow drug solutions to be added to the cells using a computer-controlled solenoid-valve based perfusion system. The cells were imaged using standard DIC optics. Cells were patched using finely-pulled glass electrodes. Voltage-clamp electrophysiology experiments were carried out using an Axon Instruments Multiclamp amplified controlled by pCLAMP8 software.
The cells were placed into a whole-cell voltage clamp and help at a voltage of −80 mV while monitoring the membrane current in gap-free recording mode. 500 nM capsaicin was added for 30 seconds as a control. Test compounds at various concentrations at ranging from (10-1000 nM) were added to the cells for 1 minute prior to a 30 second capsaicin application. Differences between control experiments and drug positive capsaicin experiments were used to determine the efficacy of each test compound. All compounds that inhibited capsaicin induced current greater than 50% were considered positives.

T1 sequence (O35433 whole entry): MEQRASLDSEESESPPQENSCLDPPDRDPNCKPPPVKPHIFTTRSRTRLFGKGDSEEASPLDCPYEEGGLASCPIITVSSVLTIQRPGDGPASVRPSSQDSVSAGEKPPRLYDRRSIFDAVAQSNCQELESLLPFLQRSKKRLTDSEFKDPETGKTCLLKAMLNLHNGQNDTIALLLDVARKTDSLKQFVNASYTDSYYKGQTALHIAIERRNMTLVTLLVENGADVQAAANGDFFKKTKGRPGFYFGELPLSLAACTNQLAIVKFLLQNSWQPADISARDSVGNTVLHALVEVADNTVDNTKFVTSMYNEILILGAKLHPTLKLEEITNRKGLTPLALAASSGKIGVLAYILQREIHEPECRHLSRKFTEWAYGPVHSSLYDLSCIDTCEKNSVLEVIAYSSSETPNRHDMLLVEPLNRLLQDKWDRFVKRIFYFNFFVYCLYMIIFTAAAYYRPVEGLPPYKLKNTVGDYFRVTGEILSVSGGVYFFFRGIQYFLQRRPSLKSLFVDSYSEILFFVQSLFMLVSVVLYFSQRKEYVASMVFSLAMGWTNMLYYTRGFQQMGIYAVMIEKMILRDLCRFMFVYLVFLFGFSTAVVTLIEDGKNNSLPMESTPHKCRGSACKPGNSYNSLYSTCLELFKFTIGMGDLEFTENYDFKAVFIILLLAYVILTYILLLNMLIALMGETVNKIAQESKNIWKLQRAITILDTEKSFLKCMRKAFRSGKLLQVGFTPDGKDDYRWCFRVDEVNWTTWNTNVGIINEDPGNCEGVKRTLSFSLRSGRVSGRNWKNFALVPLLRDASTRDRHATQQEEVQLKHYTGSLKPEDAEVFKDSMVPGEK

SMILES | dose response of inhibiting a capsaicin induced calcium ion influx (FIG. 4)
CC(C)(C)c1ccc(NC(=O)c2ccc(-c3ncccc3Cl)cc2)cc1 [Compound 24] | increasing effectiveness

Same assay, conditions: DRG neuron; 200 nM compound, treatment time 25 seconds; 500 nM capsaicin; rat DRG neurons, -80 mV

SMILES | inhibition at 0.2 µM [%]
CC(C)(C)c1ccc(NC(=O)c2ccc(-c3ncccc3Cl)cc2)cc1 [Compound 24] | 100

Tested on: VR1 receptor
Test: High throughput calcium imaging assay (Fura2, Flex Station) of VR1 antagonists, pH 5.1 stimulus
Format: cell-based
Details: 1 uM compound; inhibition of calcium ion influx induced by capsaicin stimulation

SMILES | % Inhibition @ 1 uM
CC(C)(C)c1ccc(NC(=O)c2ccc(-c3ncccc3Cl)cc2)cc1 [Compound 24] | + + + + (compound exhibited 75% or greater inhibition of calcium ion influx induced by capsaicin stimulation)
O=C(Nc1cccc(OC(F)(F)F)c1)c1ccc(-c2ncccc2Cl)cc1 [Compound 277] | + (“+” compound exhibited 0-25% inhibition of calcium ion influx induced by capsaicin stimulation.)
CC(C)Oc1cccc(NC(=O)c2ccc(-c3ncccc3Cl)cc2)c1 [Compound 278] | + (“+” compound exhibited 0-25% inhibition of calcium ion influx induced by capsaicin stimulation.)
O=C(Nc1ccc(F)c(F)c1)c1ccc(-c2ncccc2Cl)cc1 [Compound 279] | + (“+” compound exhibited 0-25% inhibition of calcium ion influx induced by capsaicin stimulation.)
CCOc1ccc(NC(=O)c2ccc(-c3ncccc3Cl)cc2)cc1 [Compound 281] | + (“+” compound exhibited 0-25% inhibition of calcium ion influx induced by capsaicin stimulation.)
O=C(Nc1ccc(N2CCNCC2)c(Cl)c1)c1ccc(-c2ncccc2Cl)cc1 [Compound 284] | + + + (“+ + +” compound exhibited 50-75% inhibition of calcium ion influx induced by capsaicin stimulation.)
CN1CCCc2ccc(NC(=O)c3ccc(-c4ncccc4Cl)cc3)cc21 [Compound 287] | + (“+” compound exhibited 0-25% inhibition of calcium ion influx induced by capsaicin stimulation.)
O=C(Nc1ccccc1)c1ccc(-c2ncccc2Cl)cn1 [Compound 289] | + + + + (“+ + + +” compound exhibited 75% or greater inhibition of calcium ion influx induced by capsaicin stimulation.)
O=C(Nc1ccc(F)cc1)c1ccc(-c2ncccc2Cl)cn1 [Compound 291] | + (“+” compound exhibited 0-25% inhibition of calcium ion influx induced by capsaicin stimulation.)
N#Cc1ccccc1NC(=O)c1ccc(-c2ncccc2Cl)cn1 [Compound 292] | + (“+” compound exhibited 0-25% inhibition of calcium ion influx induced by capsaicin stimulation.)
O=C(Nc1ccccc1Cl)c1ccc(-c2ncccc2Cl)cn1 [Compound 297] | + + + + (“+ + + +” compound exhibited 75% or greater inhibition of calcium ion influx induced by capsaicin stimulation.)
N#Cc1cccc(NC(=O)c2ccc(-c3ncccc3Cl)cn2)c1 [Compound 299] | + + + + (“+ + + +” compound exhibited 75% or greater inhibition of calcium ion influx induced by capsaicin stimulation.)
CCCCc1ccc(NC(=O)c2ccc(-c3ncccc3Cl)cn2)cc1 [Compound 302] | + + + (“+ + +” compound exhibited 50-75% inhibition of calcium ion influx induced by capsaicin stimulation.)
O=C(Nc1ccc(C2CCCCC2)cc1)c1ccc(-c2ncccc2Cl)cn1 [Compound 303] | + + + + (“+ + + +” compound exhibited 75% or greater inhibition of calcium ion influx induced by capsaicin stimulation.)
O=C(Nc1ccc(C(F)(F)F)cc1)c1ccc(-c2ncccc2Cl)cn1 [Compound 308] | + (“+” compound exhibited 0-25% inhibition of calcium ion influx induced by capsaicin stimulation.)
COc1cc(NC(=O)c2ccc(-c3ncccc3Cl)cn2)cc(C(F)(F)F)c1 [Compound 311] | + (“+” compound exhibited 0-25% inhibition of calcium ion influx induced by capsaicin stimulation.)
Cc1cc(C)nc(NC(=O)c2ccc(-c3ncccc3Cl)cn2)c1 [Compound 312] | + (“+” compound exhibited 0-25% inhibition of calcium ion influx induced by capsaicin stimulation.)
O=C(Nc1ccncc1)c1ccc(-c2ncccc2Cl)cn1 [Compound 313] | + + + (“+ + +” compound exhibited 50-75% inhibition of calcium ion influx induced by capsaicin stimulation.)
O=C(Nc1ccc(N2CCNCC2)cc1)c1ccc(-c2ncccc2Cl)cn1 [Compound 317] | + (“+” compound exhibited 0-25% inhibition of calcium ion influx induced by capsaicin stimulation.)

SMILES | % Inhibition @ 1 uM
Cc1ccnc(NC(=O)c2ccc(-c3ncccc3Cl)cn2)c1 [Compound 318] | + (“+” compound exhibited 0-25% inhibition of calcium ion influx induced by capsaicin stimulation.)
O=C(Nc1ccncn1)c1ccc(-c2ncccc2Cl)cn1 [Compound 319] | + + + + (“+ + + +” compound exhibited 75% or greater inhibition of calcium ion influx induced by capsaicin stimulation.)
COc1ccc(NC(=O)c2ccc(-c3ncccc3Cl)cn2)cn1 [Compound 324] | + + (“+ +” compound exhibited 25-50% inhibition of calcium ion influx induced by capsaicin stimulation.)
O=C(Nc1ccnc(Cl)c1)c1ccc(-c2ncccc2Cl)cn1 [Compound 325] | + (“+” compound exhibited 0-25% inhibition of calcium ion influx induced by capsaicin stimulation.)
Cc1cc(NC(=O)c2ccc(-c3ncccc3Cl)cn2)nc(C)n1 [Compound 326] | + (“+” compound exhibited 0-25% inhibition of calcium ion influx induced by capsaicin stimulation.)
O=C(Nc1ccc2ncccc2c1)c1ccc(-c2ncccc2Cl)cn1 [Compound 327] | + (“+” compound exhibited 0-25% inhibition of calcium ion influx induced by capsaicin stimulation.)
CCn1c2ccccc2c2cc(NC(=O)c3ccc(-c4ncccc4Cl)cn3)ccc21 [Compound 328] | + + + + (“+ + + +” compound exhibited 75% or greater inhibition of calcium ion influx induced by capsaicin stimulation.)
O=C(Nc1ccc2ccccc2c1)c1ccc(-c2ncccc2Cl)cn1 [Compound 331] | + + (“+ +” compound exhibited 25-50% inhibition of calcium ion influx induced by capsaicin stimulation.)
O=C(Nc1ccc(OCc2ccccc2)cc1)c1ccc(-c2ncccc2Cl)cn1 [Compound 332] | + (“+” compound exhibited 0-25% inhibition of calcium ion influx induced by capsaicin stimulation.)
CCOC(=O)c1ccc(NC(=O)c2ccc(-c3ncccc3Cl)cn2)cc1 [Compound 333] | + (“+” compound exhibited 0-25% inhibition of calcium ion influx induced by capsaicin stimulation.)
COc1ccc(NC(=O)c2ccc(-c3ncccc3Cl)cn2)cc1O [Compound 338] | + + (“+ +” compound exhibited 25-50% inhibition of calcium ion influx induced by capsaicin stimulation.)
COc1cc(NC(=O)c2ccc(-c3ncccc3Cl)cn2)cc(OC)c1OC [Compound 339] | + (“+” compound exhibited 0-25% inhibition of calcium ion influx induced by capsaicin stimulation.)
O=C(Nc1ccc2cc[nH]c2c1)c1ccc(-c2ncccc2Cl)cn1 [Compound 340] | + + + + (“+ + + +” compound exhibited 75% or greater inhibition of calcium ion influx induced by capsaicin stimulation.)
CCCOc1ccc(NC(=O)c2ccc(-c3ncccc3Cl)cn2)cc1 [Compound 341] | + (“+” compound exhibited 0-25% inhibition of calcium ion influx induced by capsaicin stimulation.)
O=C(Nc1ccc(OC(F)(F)F)cc1)c1ccc(-c2ncccc2Cl)cn1 [Compound 343] | + (“+” compound exhibited 0-25% inhibition of calcium ion influx induced by capsaicin stimulation.)
O=C(Nc1cccc(OC(F)(F)F)c1)c1ccc(-c2ncccc2Cl)cn1 [Compound 344] | + + (“+ +” compound exhibited 25-50% inhibition of calcium ion influx induced by capsaicin stimulation.)
CC(C)Oc1cccc(NC(=O)c2ccc(-c3ncccc3Cl)cn2)c1 [Compound 345] | + (“+” compound exhibited 0-25% inhibition of calcium ion influx induced by capsaicin stimulation.)
O=C(Nc1ccc(F)c(F)c1)c1ccc(-c2ncccc2Cl)cn1 [Compound 346] | + + + + (“+ + + +” compound exhibited 75% or greater inhibition of calcium ion influx induced by capsaicin stimulation.)
CCOc1cccc(NC(=O)c2ccc(-c3ncccc3Cl)cn2)c1 [Compound 347] | + + + + (“+ + + +” compound exhibited 75% or greater inhibition of calcium ion influx induced by capsaicin stimulation.)
